Measured values from patent US12528794B2, “MAO-B inhibitor DRG-MAOB-1 for use in treatment of neurodegenerative diseases” (BAHCESEHIR UNIVERSITESI, priority 2020, dated 2026).

How the values were obtained:
[1] = target: T1, human MAO-A (Homo sapiens, UniProt P21397); assay: MAO inhibitory assay (kynuramine, fluorescence), MAO-A; type: biochemical; conditions: human recombinant enzyme, kynuramine substrate, 37° C., triplicate
T1 sequence (P21397 1-527): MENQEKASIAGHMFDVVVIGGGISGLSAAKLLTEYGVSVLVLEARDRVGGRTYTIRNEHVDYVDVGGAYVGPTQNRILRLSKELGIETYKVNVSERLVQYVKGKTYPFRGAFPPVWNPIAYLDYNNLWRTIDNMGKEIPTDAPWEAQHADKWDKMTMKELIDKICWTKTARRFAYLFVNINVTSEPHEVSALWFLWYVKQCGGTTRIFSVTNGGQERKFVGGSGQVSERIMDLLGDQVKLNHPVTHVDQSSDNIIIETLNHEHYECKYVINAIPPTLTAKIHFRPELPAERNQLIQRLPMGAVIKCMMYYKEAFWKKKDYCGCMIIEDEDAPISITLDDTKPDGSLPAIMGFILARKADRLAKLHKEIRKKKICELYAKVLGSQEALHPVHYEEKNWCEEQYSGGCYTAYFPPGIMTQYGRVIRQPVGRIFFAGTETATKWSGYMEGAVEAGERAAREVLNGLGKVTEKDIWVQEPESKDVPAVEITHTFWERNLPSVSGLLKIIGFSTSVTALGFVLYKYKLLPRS
Experimental: (§1) MAO inhibitory activity was assayed using the method of Novaroli et al. with minor modifications. Briefly, 140 μL of 0.1 M potassium phosphate buffer (pH 7.4), 8 μL of 0.75 mM kynuramine, and 2 μL of a dimethyl sulfoxide (DMSO) inhibitor solution (final DMSO concentration of 1% (v/v) and final concentrations of the inhibitors of 0-1 μM), were preincubated at 37° C. for 10 min. Diluted human recombinant enzyme (50 μL) was then added to obtain a final protein concentration of 0.0075 mg/mL (MAO-A) or 0.015 mg/mL (MAO-B) in the assay mixture. The reaction mixture was further incubated at 37° C. and the reaction was stopped after 20 min by the addition of 75 μL of 2 M NaOH. The product generated by MAO, 4-quinolinol, is fluorescent and was measured at Ex 310 nm/Em 400 nm using a microplate reader (Thermo Scientific-Multiskan GO). Each data points of samples were triplicate. The sample solution was replaced with DMSO to provide a negative control. The IC50 values were calculated from a line through two points which sandwiched the point of 50% (IC50) by plotting the remained activity (%) related to control (100%) versus the logarithm of the inhibitor concentration to obtain a sigmoidal dose-response curve

[2] = target: T2, human MAO-B (Homo sapiens, UniProt P27338); assay: MAO inhibitory assay (kynuramine, fluorescence), MAO-B; type: biochemical
T2 sequence (P27338 1-520): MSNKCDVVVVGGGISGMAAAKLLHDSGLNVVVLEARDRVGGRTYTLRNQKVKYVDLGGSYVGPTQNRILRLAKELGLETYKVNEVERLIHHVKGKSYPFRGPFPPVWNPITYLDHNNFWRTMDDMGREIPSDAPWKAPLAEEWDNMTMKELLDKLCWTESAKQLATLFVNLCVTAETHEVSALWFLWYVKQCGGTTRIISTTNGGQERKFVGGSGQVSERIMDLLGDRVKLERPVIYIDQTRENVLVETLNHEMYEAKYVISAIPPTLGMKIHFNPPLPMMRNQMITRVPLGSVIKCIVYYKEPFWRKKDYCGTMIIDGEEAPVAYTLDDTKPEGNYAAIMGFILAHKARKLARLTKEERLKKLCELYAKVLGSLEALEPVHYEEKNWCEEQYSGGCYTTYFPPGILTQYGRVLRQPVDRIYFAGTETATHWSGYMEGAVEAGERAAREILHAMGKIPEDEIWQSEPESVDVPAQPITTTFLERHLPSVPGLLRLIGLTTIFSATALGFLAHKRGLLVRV
Experimental: as §1

## Cn1nc(C(=O)NCCc2nc3ccccc3[nH]2)c2ccccc21 (racemic) [compound of formula I]
[1]
  IC50: 0.0548 ± 0.0019 µM
[2]; MAO-B over MAO-A, from IC50 values
  fold more potent binding to MOA-B compared to MOA-A: approximately 13 fold
[2]; human recombinant enzyme, kynuramine substrate, 37° C., triplicate
  IC50: 0.00402 ± 3e-05 µM
